Results published in US9695155B2, “Herbicidal substituted pyrimidinyloxy benzene compounds” (E. I. DU PONT DE NEMOURS AND COMPANY, priority 2013, dated 2017).

Assays:
wild buckwheat = assay: Test D preemergence; type: in vivo, Polygonum convolvulus; settings: for pest or weed control at 16 g/ha: read-out: Plant response rating, Buckwheat, Wild
Source text: Seeds of plant species selected from bluegrass (annual bluegrass, Poa annua), blackgrass (Alopecurus myosuroides), canarygrass (littleseed canarygrass, Phalaris minor), chickweed (common chickweed, Stellaria media), galium (catchweed bedstraw, Galium aparine), bromegrass, downy (downy bromegrass, Bromus tectorum), field poppy (Papaver rhoeas), field violet (Viola arvensis), green foxtail (Setaria viridis), deadnettle (henbit deadnettle, Lamium amplexicaule), Italian ryegrass (Lolium multiflorum), kochia (Kochia scoparia), lambsquarters (Chenopodium album), oilseed rape (Brassica napus), pigweed (Amaranthus retroflexus), chamomile (scentless chamomile, Matricaria inodora), Russian thistle (Salsola kali), speedwell (bird's-eye speedwell, Veronica persica), spring barley (Hordeum vulgare), spring wheat (Triticum aestivum), wild buckwheat (Polygonum convolvulus), wild mustard (Sinapis arvensis), wild oat (Avena fatua), wild radish (Raphanus raphanistrum), windgrass (Apera spica-venti), winter barley (Hordeum vulgare), and winter wheat (Triticum aestivum) were planted into a silt loam soil and treated preemergence with test chemicals formulated in a non-phytotoxic solvent mixture which included a surfactant.
At the same time, these species were planted in pots containing Redi-Earth® planting medium (Scotts Company, 14111 Scottslawn Road, Marysville, Ohio 43041) comprising spaghnum peat moss, vermiculite, wetting agent and starter nutrients and treated with postemergence applications of the test chemicals formulated in the same manner. Plants ranged in height from 2 to 18 cm (1- to 4-leaf stage). Treated plants and controls were maintained in a controlled growth environment for 7 to 21 days after which time all species were compared to controls and visually evaluated. Plant response ratings, summarized in Table D, are based on a scale of 0 to 100 where 0 is no effect and 100 is complete control. A dash (-) response means no test result.

large (Lg) crabgrass = assay: Test E preemergence; type: in vivo, Digitaria sanguinalis; settings: for Crabgrass, Large plant response rating: scale 0 to 100 (0 no effect, 100 complete control)
Summary of the method: (§1)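 Test chemicals formulated in a non-phytotoxic solvent mixture containing a surfactant were applied preemergence to seeds in silt loam soil or postemergence to plants at the 1- to 4-leaf stage in potting mix. After 14 to 21 days in a greenhouse, injury was visually rated against controls on a 0-100 scale (0 = no effect, 100 = complete control).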

green foxtail = assay: Test E preemergence; type: in vivo, Setaria viridis; settings: for Foxtail, Green plant response rating: scale 0 to 100 (0 no effect, 100 complete control)
Summary of the method: as §1

ragweed [1] = assay: Test E preemergence; type: in vivo, Ambrosia elatior; settings: for Ragweed plant response rating: scale 0 to 100 (0 no effect, 100 complete control)
Summary of the method: as §1

barnyardgrass = assay: Test E preemergence; type: in vivo, Echinochloa crus-galli; settings: for Barnyardgrass plant response rating: scale 0 to 100 (0 no effect, 100 complete control)
Summary of the method: as §1

yellow nutsedge = assay: Test E preemergence; type: in vivo, Cyperus esculentus; settings: for Nutsedge, Yellow plant response rating: scale 0 to 100 (0 no effect, 100 complete control)
Summary of the method: as §1

kochia = assay: Test A preemergence; type: in vivo, Kochia scoparia; settings: for Kochia plant response rating: 500 g ai/ha
Summary of the method: (§2)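 Scoring: eye-based comparison with untreated controls, 0 for no effect through 100 for complete control, at about day 10. Treatments: directed soil spray preemergence; foliar spray postemergence on 2–10 cm plants at the one- to two-leaf stage. Medium: loam soil with sand.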

ragweed [2] = assay: Test A preemergence; type: in vivo, Ambrosia elatior; settings: for Ragweed plant response rating: 500 g ai/ha
Summary of the method: as §2

Italian ryegrass = assay: Test A preemergence; type: in vivo, Lolium multiflorum; settings: for Ryegrass, Italian plant response rating: 500 g ai/ha
Summary of the method: as §2

blackgrass = assay: Test A postemergence; type: in vivo, Alopecurus myosuroides
Summary of the method: as §2

[3] = Fallopia convolvulus, pre-emergence, 16 g ai/ha, scale 0 (no effect) to 100 (complete control)
[4] = Fallopia convolvulus, pre-emergence, 31 g ai/ha, scale 0-100, read-out: Plant response rating, Buckwheat, Wild
[5] = Fallopia convolvulus, pre-emergence, 62 g ai/ha, scale 0-100, read-out: Plant response rating, Buckwheat, Wild
[6] = Fallopia convolvulus, pre-emergence, 125 g ai/ha, scale 0-100, read-out: Plant response rating, Buckwheat, Wild
[7] = 8 g ai/ha, scale 0 to 100, 0 is no effect, 100 is complete control
[8] = 125 g ai/ha, scale 0 to 100, 0 no effect, 100 complete control
[9] = Preemergence, 62 g ai/ha, scale 0 to 100, 0 no effect, 100 complete control
[10] = preemergence, 125 g ai/ha, scale 0 to 100, 0 no effect, 100 complete control
[11] = 125 g ai/ha, 0 to 100 scale where 0 is no effect and 100 is complete control
[12] = 0 to 100 scale, 0 no effect, 100 complete control, approx. 10 days
[13] = 500 g ai/ha, 0 to 100 scale where 0 is no effect and 100 is complete control
[14] = 250 g ai/ha, scale 0 to 100, 0 no effect, 100 complete control
[15] = 31 g ai/ha, 0 to 100 scale where 0 is no effect and 100 is complete control, visual, approximately 10 days
[16] = 0 to 100 scale where 0 is no effect and 100 is complete control

SMILES	pest or weed control at 16 g/ha (wild buckwheat; [3])	pest or weed control at 31 g/ha (wild buckwheat; [4])	pest or weed control at 62 g/ha (wild buckwheat; [5])	pest or weed control at 125 g/ha (wild buckwheat; [6])	Crabgrass, Large plant response rating (large (Lg) crabgrass; 16 g ai/ha)	Crabgrass, Large plant response rating (large (Lg) crabgrass; 31 g ai/ha)	Crabgrass, Large plant response rating (large (Lg) crabgrass; 62 g ai/ha)	Plant response rating, Crabgrass, Large (large (Lg) crabgrass; [8])	Foxtail, Green plant response rating (green foxtail; 16 g ai/ha)	Foxtail, Green plant response rating (green foxtail; 31 g ai/ha)	Foxtail, Green plant response rating (green foxtail; 62 g ai/ha)	Plant response rating, Foxtail, Green (green foxtail; [8])	Ragweed plant response rating (ragweed [1]; 31 g ai/ha)	Ragweed plant response rating (ragweed [1]; 62 g ai/ha)	Plant response rating, Ragweed (ragweed [1]; [8])	Barnyardgrass plant response rating (barnyardgrass; 31 g ai/ha, preemergence)	Plant response rating, Barnyardgrass (barnyardgrass; [10])	Nutsedge, Yellow plant response rating (yellow nutsedge; 31 g ai/ha)	Nutsedge, Yellow plant response rating (yellow nutsedge; 62 g ai/ha)	Plant response rating, Nutsedge, Yellow (yellow nutsedge; [8])	other results
Clc1cnc(Oc2ccccc2-n2cc(Cl)cn2)nc1 [Compound 3]	–	–	–	–	–	–	–	–	–	–	–	–	–	–	–	–	–	–	–	–	Plant response rating, Buckwheat, Wild (wild buckwheat; 16 g ai/ha, scale 0 (no effect) to 100 (complete control)): 0; Plant response rating, Buckwheat, Wild (wild buckwheat; 31 g ai/ha, scale 0-100): 0; Plant response rating, Buckwheat, Wild (wild buckwheat; 62 g ai/ha, scale 0-100): 0; Plant response rating, Buckwheat, Wild (wild buckwheat; 125 g ai/ha, scale 0-100): 60; Plant response rating, Buckwheat, Wild (wild buckwheat; 250 g ai/ha, scale 0-100): 100
Clc1cnc(Oc2ccccc2-n2cc(Br)cn2)nc1 [Compound 7, 2-[2-(4-bromo-1H-pyrazol-1-yl)phenoxy]-5-chloropyrimidine]	0%	0%	75%	80%	0	70	75	98	0	30	35	75	0	0	0	0	0	0	0	0	pest or weed control at 250 g/ha (wild buckwheat; Fallopia convolvulus, pre-emergence, 250 g ai/ha, scale 0-100, read-out: Plant response rating, Buckwheat, Wild): 90%; Plant response rating, Crabgrass, Large (large (Lg) crabgrass; [7]): 0; Plant response rating, Foxtail, Green (green foxtail; [7]): 0; Plant response rating, Ragweed (ragweed [1]; [7]): 0; Ragweed plant response rating (ragweed [1]; 16 g ai/ha): 0; Plant response rating, Barnyardgrass (barnyardgrass; 8 g ai/ha, preemergence, scale 0 to 100, 0 is no effect, 100 is complete control): 0; Barnyardgrass plant response rating (barnyardgrass; 16 g ai/ha, preemergence): 0; Plant response rating, Barnyardgrass (barnyardgrass; [9]): 0; Plant response rating, Nutsedge, Yellow (yellow nutsedge; [7]): 0; Nutsedge, Yellow plant response rating (yellow nutsedge; 16 g ai/ha): 0
N#Cc1cccc(Oc2ncc(Br)cn2)c1-n1cc(I)cn1 [Compound 88]	–	–	–	–	0	35	65	95	0	0	0	35	0	0	65	0	0	0	0	0	Plant response rating, Kochia (kochia; [11]): 100; Kochia plant response rating (kochia; [12]): 100; Ragweed plant response rating (ragweed [2]; [12]): 60; Plant response rating, Ryegrass, Italian (Italian ryegrass; [11]): 20; Ryegrass, Italian plant response rating (Italian ryegrass; [12]): 30; Plant response rating, Blackgrass (blackgrass; [11]): 70; Plant response rating, Blackgrass (blackgrass; [13]): 100; Ragweed plant response rating (ragweed [1]; 16 g ai/ha): 0; Barnyardgrass plant response rating (barnyardgrass; 16 g ai/ha, preemergence): 0; Plant response rating, Barnyardgrass (barnyardgrass; [9]): 0; Nutsedge, Yellow plant response rating (yellow nutsedge; 16 g ai/ha): 0
CCOc1cnn(-c2c(C#N)cccc2Oc2ncc(F)cn2)c1 [Compound 89]	–	–	–	–	–	35	85	100	–	0	35	65	65	80	80	0	70	0	0	20	Plant response rating, Kochia (kochia; [11]): 90; Kochia plant response rating (kochia; [12]): 100; Plant response rating, Ragweed (ragweed [2]; [11]): 50; Ragweed plant response rating (ragweed [2]; [12]): 70; Plant response rating, Ryegrass, Italian (Italian ryegrass; [11]): 0; Ryegrass, Italian plant response rating (Italian ryegrass; [12]): 10; Plant response rating, Blackgrass (blackgrass; [11]): 40; Plant response rating, Blackgrass (blackgrass; [13]): 90; Plant response rating, Crabgrass, Large (large (Lg) crabgrass; [14]): 100; Plant response rating, Foxtail, Green (green foxtail; [14]): 85; Plant response rating, Ragweed (ragweed [1]; [14]): 90; Plant response rating, Barnyardgrass (barnyardgrass; [9]): 20; Plant response rating, Barnyardgrass (barnyardgrass; preemergence, 250 g ai/ha, scale 0 to 100, 0 no effect, 100 complete control): 98; Plant response rating, Nutsedge, Yellow (yellow nutsedge; [14]): 35
N#Cc1cnn(-c2c(CF)cccc2Oc2ncc(F)cn2)c1 [Compound 151]	–	–	–	–	0	5	60	100	20	20	70	75	90	95	100	20	75	0	0	0	Plant response rating, Kochia (kochia; [15]): 80; Plant response rating, Kochia (kochia; [11]): 90; Plant response rating, Ragweed (ragweed [2]; [15]): 20; Plant response rating, Ragweed (ragweed [2]; [11]): 80; Plant response rating, Ryegrass, Italian (Italian ryegrass; [15]): 0; Plant response rating, Ryegrass, Italian (Italian ryegrass; [11]): 0; Plant response rating, Blackgrass (blackgrass; 31 g ai/ha, 0 to 100 scale, 0 no effect, 100 complete control): 20; Blackgrass plant response rating (blackgrass; [11]): 50; Barnyardgrass plant response rating (barnyardgrass; 16 g ai/ha, preemergence): 0; Barnyardgrass plant response rating (barnyardgrass; 62 g ai/ha, preemergence): 10
FC(F)(F)c1cn(-c2ccccc2Oc2ncc(Cl)cn2)nn1 [Compound 166, 5-chloro-2-[2-[4-(trifluoromethyl)-1H-1,2,3-triazol-1-yl]phenoxy]pyrimidine]	60%	95%	100%	100%	–	–	–	–	–	–	–	–	–	–	–	–	–	–	–	–	–
Fc1cccc(Oc2ncc(Cl)cn2)c1-n1cc(Br)cn1 [Compound 178, 2-[2-(4-bromo-1H-pyrazol-1-yl)-3-fluorophenoxy]-5-chloropyrimidine]	15%	55%	100%	100%	–	–	–	–	–	–	–	–	–	–	–	–	–	–	–	–	–
N#Cc1cccc(Oc2ncc(Cl)cn2)c1-n1cc(-n2ccc(C(F)(F)F)n2)cn1 [Compound 284]	–	–	–	–	–	–	–	–	–	–	–	–	–	–	–	–	–	–	–	–	Kochia plant response rating (0 to 100 scale) (kochia; 125 g ai/ha): 80; Kochia plant response rating (kochia; [16]): 100; Ragweed plant response rating (0 to 100 scale) (ragweed [2]; 125 g ai/ha): 0; Ragweed plant response rating (ragweed [2]; [16]): 0; Ryegrass, Italian plant response rating (0 to 100 scale) (Italian ryegrass; 125 g ai/ha): 20; Ryegrass, Italian plant response rating (Italian ryegrass; [16]): 20; Plant response rating, Blackgrass (blackgrass; 125 g ai/ha, 0 to 100 scale, 0 no effect, 100 complete control): 30; Plant response rating, Blackgrass (blackgrass; [13]): 70; Plant response rating, Buckwheat, Wild (wild buckwheat; 31 g ai/ha, scale 0 (no effect) to 100 (complete control)): 10; Plant response rating, Buckwheat, Wild (wild buckwheat; 62 g ai/ha, scale 0-100): 20; Plant response rating, Buckwheat, Wild (wild buckwheat; 125 g ai/ha, scale 0-100): 70; Plant response rating, Buckwheat, Wild (wild buckwheat; 250 g ai/ha, scale 0-100): 100
